The nature of data set [1]: Snake study: water uptake into snake skin after treatment with amino acid solution. The following applies: 24 h treatment with 1.33M amino acid solution, dried, then 40% RH. Further details: species or system Elaphe guttata, the American corn snake.
Description: • All experiments were performed in triplicate (i.e. three separate solutions, three pieces of skin, one per solution). […] Each piece was weighed and placed directly into one the of the amino acid solutions, one piece of snake skin per solution. • After 1 hour, the snake skin was removed from the solution and blotted dry on filter paper. The weight of the snake skin was recorded before the same snake skin was returned to the amino acid solution. • After an additional 23 hours (24 hours in total), the snake skin was again blotted dry on filter paper and weighed. • The snake skin, now having absorbed the test amino acid, was then placed in a vacuum desiccator over silica (0% RH) for 48 hours before being weighed.
• A 10% w/w concentration solution of each compound is made by stirring the compound (100 mg) in water (1 mL). Three separate solutions of each compound are made separately so that the experiment can be carried out in triplicate simultaneously. […] The weight of the snake skin is recorded before the same snake skin is returned to the same compound solution. • After an additional 23 hours (24 hours in total), the snake skin is again blotted dry on filter paper and weighed. • The snake skin is then placed in a vacuum desiccator over silica (0% relative humidity (RH)) for 48 hours before being weighed. […]
Another data set deals with RHE tissues. Kind of data set: RHE irritation assessment Method 1: SkinEthic Skin Irritation Test-42 bis assay (MTT), plus 24 h contact time. Format: cell-based, human. The conditions noted are these: 42 min and 24 h exposure; 5 and 1% w/v α-H-G, 10 and 1% w/v L-h-S in water. From the text: The purpose of this experiment was to investigate the potential of alpha-hydroxyglycine (α-H-G) and L-homoserine (L-h-S) to cause skin irritation. The method was based on the validated SOP for the “The SkinEthic Skin Irritation Test-42 bis assay” in accordance to OECD guideline Test No. 439: In Vitro Skin Irritation. The protocol is provided in Section 1.2. Further details on the method can be found in the SkinEthic™ RHE SOP, Version 2.1 (July 2009), SkinEthic skin irritation test-42 bis test method for the prediction of acute skin irritation of chemicals: 42 minutes application+42 hours post-incubation. Available at: [http://ecvam.jrc.ec.europa.eu].
In addition, a further experiment was performed where the contact time of the test solution with the tissue was increased to 24 h. Following which point an MTT assay was used to determine the tissue viability and the test solutions potential to cause irritation.
The following steps were completed on receipt of the tissues: • (i) Wells of 6-well plates were filled with 1 mL growth culture medium. • (ii) Tissue were removed from their packaging, cleaned to remove the transport agarose and inspected for signs of damage; damaged tissues were discarded. • (iii) The tissue were transferred into the growth culture medium then incubated at 37° C., 5% CO2 until application of the test solution.
1.2.1.1.6 Applications of 5 and 1% w/v α-H-G and 10 and 1% w/v L-h-S and Controls • (i) 16 μL±0.5 μL of the test solutions (5% w/v α-hydroxyglycine (α-H-G) in water, 1% w/v α-hydroxyglycine (α-H-G) in water, 10% w/v L-homoserine (L-h-S) in water, 1% w/v L-homoserine (L-h-S) in water) and negative (PBS) and positive (5% SDS) controls were dispensed onto the top of the epidermal tissue, using positive displacement pipette. […]

Data on one compound can be found in patent US20150328109A1, “DERMAL COMPOSITIONS CONTAINING UNNATURAL HYGROSCOPIC AMINO ACIDS” (MEDPHARM LIMITED, priority 2012, published 2015).

For `N[C@@H](CCO)C(=O)O` [L-homoserine], in data set [1], the “average percentage weight increase after 24 h at 40% RH” value is “particularly advantageous properties”. In addition, in the data set on RHE tissues, the “skin irritation potential (viability below 50% of negative control = irritant)” value is recorded as “non-irritants”.
